In patent publication US8795746B2, “Therapeutic use of mucin glycans” (The Board of Trustees of the Leland Stanford Junior …, priority 2011, dated 2014):

Key:
B. fragilis = assay: Sialic acid content determination in MM-HMO after B. fragilis growth (DMB derivatization, RP-HPLC); type: cell-based, Bacteroides fragilis
Protocol: Ten of the 21 genes in the HMO-specific B. fragilis response were distributed within two loci that are dedicated to sialic acid acquisition and catabolism (FIG. 6B).
Sialic acid content determination. B. fragilis culture supernatant was isolated after growth in MM-HMO and clarified by centrifugation and filtration. Sialic acid concentrations were determined by the Glycotechnology Core Facility UCSD (University of California, San Diego, Calif., United States). Briefly, sialic acids were released by acid hydrolysis at 80 C for 3 hours in 2M acetic acid, collected by ultra-filtration, and derivatized with DMB (1,2-diamino-4,5-methylenedioxybenzene). The resulting fluorescent sialic acids derivatives were analyzed by RP-HPLC with on-line fluorescence detection, and identification was based on standards run in parallel.
(§1) Sialic Acid Content Determination. Culture supernatant was isolated after growth in MM-HMO and clarified by centrifugation and filtration. Sialic acid concentrations were determined by the Glycotechnology Core Facility UCSD (University of California, San Diego, San Diego, Calif.), using the […] DMB labeling kit protocol (Prozyme, San Leandro, Calif.).

Bt = assay: Sialic acid content determination in MM-HMO after Bt growth; type: cell-based, Bacteroides thetaiotaomicron
Protocol: Twelve of the 21 HMO-specific Bf genes were distributed within two loci that are dedicated to sialic acid acquisition and catabolism (FIG. 16B). […] To confirm that Bf does in fact consume sialic acids from HMOs, sialic acid content in the MM-HMO after growth was measured before and after acid hydrolysis using derivatization with 1,2-diamino-4,5-methylenedioxybenzene followed by reverse phase HPLC.
as §1

Bt VPI-5482 genes / PULs = assay: Whole genome transcriptional profiling of Bt (GeneChip) relative to MM-glucose; type: cell-based, Bacteroides thetaiotaomicron; conditions: compared to MM-glucose
Protocol: We grew Bt in minimal medium (MM) containing HMO (1.5% w/v) as the sole carbohydrate to investigate if this strain consumes human milk glycans in vitro. […] Next, we defined the transcriptional response of Bt during HMO consumption using whole genome transcriptional profiling with a custom Bt VPI-5482 GeneChip that represent >98% of this organism's protein coding genes. The transcriptome was analyzed near the midpoints of the two logarithmic growth phases in MM-HMO (n=2 biological replicates/growth phase, four datasets total). As a baseline for comparison, we used previously reported in vitro datasets of Bt grown in MM-glucose.
We wished to identify which portion of the observed Bt transcriptional response in MM-HMO was due to the complex oligosaccharides versus simple core sugars, lactose and galactose. Therefore, we performed transcriptional profiling of Bt grown in MM-galactose and MM-lactose (n=2 mid-log phase datasets for each of these monophasic growths; see FIG. 8 for growth curves and sampling timepoints).
Whole Genome Transcriptional Profiling. […] GeneChip data from bacteria growth in different carbon sources were normalized using R program by RMA-MS and statistical significance for differential gene expression was determined using SAM [45]. […]

[1] = tested on: Bacteroides thetaiotaomicron (Bt); assay: In vitro growth of Bt in minimal medium with the glycan as sole carbohydrate (OD600); type: cell-based; conditions: glycan 1.5% w/v as sole carbon source
Protocol: The transcriptome was analyzed near the midpoints of the two logarithmic growth phases in MM-HMO (n=2 biological replicates/growth phase, four datasets total). As a baseline for comparison, we used previously reported in vitro datasets of Bt grown in MM-glucose. […] Within these combined 253 genes (132 were commonly up regulated in both phases), 137 genes had ≧5-fold change in expression when compared to MM-glucose (see Table S1 for complete list of genes).
(§2) Bacterial Strains and Culture conditions. Type strains for Bacteroides species were used unless otherwise indicated. Bacteroides species were grown in tryptone-yeast extract-glucose (TYG) medium and minimal medium (MM) as described previously. Bif. infantis was grown in Man-Rogosa-Sharpe (MRS) medium (Oxoid LTD., Basingstoke, Hampshire, England) and minima medium consisting of modified MRS, which lacks glucose. […] OD600 was monitored using a BioTek PowerWave 340 plate reader (BioTek, Winoosky, Vt., United States) every 30 min, at 37° C. anaerobically (6% H2, 20% CO2, 74% N2).
Bacterial Strains and Culture Conditions. Type strains were used unless otherwise indicated. Bacteroides species were grown in tryptone-yeast extract-glucose (TYG) medium and minimal medium (MM). […] OD600 was monitored using a BioTek PowerWave 340 plate reader (BioTek, Winooski, Vt.) every 30 min, at 37_C anaerobically (6% H2, 20% CO2, 74% N2).

Bif. infantis ATCC15697 = assay: In vitro growth of Bif. infantis in minimal medium with the glycan as carbon source; type: cell-based, Bifidobacterium longum subsp. infantis; conditions: minimal medium (modified MRS without glucose) with the glycan
Protocol: We next queried whether the redundancy in machinery employed for mucin and HMO consumption in Bt is also found in Bifidobacterium species that are well-adapted to HMO use. Therefore, we grew a strain known to be proficient at HMO-use, Bif. infantis ATCC15697 in MM-O-PMG.
as §2
B. thetaiotaomicron and Bifidobacterium infantis Differentially Consume the Structurally Similar Mucin Glycans and HMO. […] We grew an HMO-consuming Bifidobacterium strain that is abundant in the microbiota of breast-fed infants, Bi, in purified porcine mucin glycans (MM-O-PMG) to elucidate its competence in mucin consumption. […]
Bacterial Strains and Culture Conditions. […] OD600 was monitored using a BioTek PowerWave 340 plate reader (BioTek, Winooski, Vt.) every 30 min, at 37_C anaerobically (6% H2, 20% CO2, 74% N2).

[2] = tested on: Bt and Bi fecal community; assay: Competitive colonization of gnotobiotic mice biassociated with Bt and B. infantis, LNnT in the water; type: in vivo, germ-free Swiss-Webster mice
Protocol: Two groups of 6-week-old germ-free mice were fed a polysaccharide-deficient diet, forcing a reliance on host mucus glycans for carbon and energy. One group received LNnT supplementation in the water (1% w/v; average consumption of 75 mg of LNnT daily), the control group received plain water.
After one day of LNnT feeding, both groups were colonized with equivalent quantities of Bt and Bi (10^8 CFU each). At day 6 post-inoculation, the group receiving LNnT was switched to normal water; at day 15 post-inoculation, LNnT was readministered for 3 additional days. Total bacterial colonization density was determined by assessing the CFUs in feces over the course of the 18 day experiment. […] LNnT supplementation was withdrawn on day 6 and colonization density was determined on days 7, 8, 9, 12, and 15 post colonization (1, 2, 3, 6, and 9 days after removing LNnT from the water). […] At day 3 post withdrawal of LNnT, Bi representation was 3.9±0.2% compared to 41.5±6.4% just prior to withdrawal (p=0.006, day 6 versus day 9, n=4 mice). LNnT was reintroduced into the water on day 15, and bacterial colonization was monitored at days 16, 17, and 18 post colonization. Two days after LNnT reintroduction, Bi expanded from 0.5±0.5% at day 15 to 49.9±2% at day 17 (p=0.012, day 15 versus day 17, n=4 mice). By day 18, Bi represented 25.9±9.6% of the community in LNnT-fed mice, compared to 1.9±1.5% in the control group (p=0.014, n=4 mice) (FIG. 16C).
Competitive Colonization of Gnotobiotic Mouse. Germ-free Swiss-Webster mice were reared in gnotobiotic isolators and fed an autoclaved polysaccharide-deficient diet in accordance with A-PLAC, the Stanford IACUC. Mice were biassociated using oral gavage (10^8 CFU of each species). Subsequent community enumerations from mice were determined from freshly collected feces, by selective plating of serial dilutions in RCM agar and BHI-blood agar supplemented with gentamicin ([…]). Significant differences between sample groups were determined using Student's t test. Synthetic LNnT (Glycom A/S, Denmark) was purified by crystallization to a final purity of >99%. Characterization was performed using multiple methods, including NMR (1D and 2D) mass spectrometry, and HPLC.

Question: For CC(=O)N[C@H]1[C@H]([C@H](O)[C@H](O)CO)OC(O)(C(=O)O)C[C@@H]1O (stereo partly drawn) [Neu5Ac, N-acetylneuraminic acid], which “Neu5Ac content after B. fragilis growth” value (B. fragilis) is on record?
Answer: completely depleted

Question: What about the “Neu5Ac use by Bt” value (Bt) of the same compound?
Answer: unable to catabolize it

Question: With O=C[C@H](O)[C@@H](O)[C@@H](O)[C@H](O)CO [galactose] as the compound, how does the “number of Bt genes up regulated at least 5-fold” value (Bt VPI-5482 genes / PULs) read?
Answer: 40 genes

Question: What does the source list for CC(=O)N[C@H]1[C@H](O[C@H]2[C@@H](O)[C@@H](CO)O[C@@H](O[C@H]3[C@H](O)[C@@H](O)C(O)O[C@@H]3CO)[C@@H]2O)O[C@H](CO)[C@@H](O[C@@H]2O[C@H](CO)[C@H](O)[C@H](O)[C@H]2O)[C@@H]1O (mixture of isomers) [LNnT, lacto-N-neotetraose]?
Answer: growth of Bt [1]: did not; growth of Bif. infantis (Bif. infantis ATCC15697): grew efficiently reaching a high OD; time for Bi to drop to levels similar to controls after removal of LNnT ([2]; LNnT withdrawn on day 6): ≤ 2 days; Bi relative to Bt in fecal community ([2]; day 6, LNnT 1% w/v in water, polysaccharide-deficient diet): 41.5±6.4%; Bi representation ([2]; day 9, day 3 post withdrawal of LNnT): 3.9±0.2%; Bi representation ([2]; day 15, before LNnT reintroduction): 0.5±0.5%; Bi representation ([2]; day 17, two days after LNnT reintroduction): 49.9±2%; Bi share of the community ([2]; day 18, LNnT-fed mice): 25.9±9.6%

Question: How did the “number of Bt genes up regulated at least 5-fold” value (Bt VPI-5482 genes / PULs) turn out when OC[C@H]1O[C@@H](O[C@H]2[C@H](O)[C@@H](O)C(O)O[C@@H]2CO)[C@H](O)[C@@H](O)[C@H]1O (stereo partly drawn) [lactose] was run?
Answer: 34 genes
